For 13 molecules, MIC50 and MIC90 results are on record in ChEMBL document CHEMBL1649463, “Capsular type and antibiotic resistance in Streptococcus agalactiae isolates from patients, ranging from newborns to the elderly, with invasive infections” (2009).

One may read the MIC50 as the lowest concentration that inhibits either 50% of growth or 50% of the strains tested, depending on the study. The MIC90 is the lowest concentration that inhibits either 90% of growth or 90% of the strains tested, depending on the study. The low end stands for higher susceptibility, the high end for lower susceptibility.

Values after ≈ are worked out from the molar mass of the structure shown.

The assay relates to Streptococcus agalactiae. Nature of the assay: Antimicrobial activity against Streptococcus agalactiae clinical isolates by agar dilution method. It counts as functional. (In agar dilution, organisms are placed on agar that contains the substance at set levels.)

The molecule `CC(=N)N1CC[C@H](SC2=C(C(=O)O)N3C(=O)[C@H]([C@@H](C)O)[C@H]3C2)C1` had an MIC50 of 0.016 µg/mL (≈ 0.0471 µM) and an MIC90 of 0.031 µg/mL (≈ 0.0913 µM).

Regarding `C=CC1=C(C(=O)O)N2C(=O)[C@@H](NC(=O)/C(=N\O)c3csc(N)n3)[C@H]2SC1`, the MIC50 came to 0.031 µg/mL (≈ 0.0784 µM) and the MIC90 was found to be 0.063 µg/mL (≈ 0.159 µM).

On to `CC1(C)S[C@@H]2[C@H](NC(=O)[C@H](N)c3ccc(O)cc3)C(=O)N2[C@H]1C(=O)O` [AMOXICILLIN], for which the MIC50 amounted to 0.063 µg/mL (≈ 0.172 µM) and the MIC90 was found to be 0.125 µg/mL (≈ 0.342 µM).

`CC1(C)S[C@@H]2[C@H](NC(=O)[C@H](N)c3ccccc3)C(=O)N2[C@H]1C(=O)O` [AMPICILLIN] returned an MIC50 of 0.125 µg/mL (≈ 0.358 µM) and an MIC90 of 0.125 µg/mL (≈ 0.358 µM).

`CO/N=C(\C(=O)N[C@@H]1C(=O)N2C(C(=O)OCOC(=O)C(C)(C)C)=C(/C=C\c3scnc3C)CS[C@H]12)c1csc(N)n1` [CEFDITOREN PIVOXIL] yielded an MIC50 of 0.031 µg/mL (≈ 0.0499 µM) and an MIC90 of 0.031 µg/mL (≈ 0.0499 µM).

`CO/N=C(\C(=O)N[C@@H]1C(=O)N2C(C(=O)O)=C(COC(C)=O)CS[C@H]12)c1csc(N)n1` [CEFOTAXIME] came in with an MIC50 of 0.031 µg/mL (≈ 0.0681 µM) and an MIC90 of 0.063 µg/mL (≈ 0.138 µM).

In turn, `CN(C)CCn1nnnc1SCC1=C(C(=O)O)N2C(=O)[C@@H](NC(=O)Cc3csc(N)n3)[C@H]2SC1` [CEFOTIAM] yielded an MIC50 of 0.5 µg/mL (≈ 0.951 µM) and an MIC90 of 0.5 µg/mL (≈ 0.951 µM).

Regarding `CC[C@H]1OC(=O)[C@H](C)[C@@H](O[C@H]2C[C@@](C)(OC)[C@@H](O)[C@H](C)O2)[C@H](C)[C@@H](O[C@@H]2O[C@H](C)C[C@H](N(C)C)[C@H]2O)[C@](C)(OC)C[C@@H](C)C(=O)[C@H](C)[C@@H](O)[C@]1(C)O` [CLARITHROMYCIN], the MIC50 stood at 0.125 µg/mL (≈ 0.167 µM) and the MIC90 was ≥ 64 µg/mL.

`CCC[C@@H]1C[C@@H](C(=O)N[C@@H]([C@H]2O[C@H](SC)[C@H](O)[C@@H](O)[C@H]2O)[C@H](C)Cl)N(C)C1` [CLINDAMYCIN]: the MIC50 amounted to 0.063 µg/mL (≈ 0.148 µM) and the MIC90 is ≥ 64 µg/mL.

For `CC[C@H]1OC(=O)[C@H](C)[C@@H](O[C@H]2C[C@@](C)(OC)[C@@H](O)[C@H](C)O2)[C@H](C)[C@@H](O[C@@H]2O[C@H](C)C[C@H](N(C)C)[C@H]2O)[C@](C)(O)C[C@@H](C)C(=O)[C@H](C)[C@@H](O)[C@]1(C)O` [ERYTHROMYCIN], the MIC50 is 0.032 µg/mL (≈ 0.0436 µM) and the MIC90 was ≥ 64 µg/mL.

With `C[C@H]1COc2c(N3CCN(C)CC3)c(F)cc3c(=O)c(C(=O)O)cn1c23.C[C@H]1COc2c(N3CCN(C)CC3)c(F)cc3c(=O)c(C(=O)O)cn1c23.O` [LEVOFLOXACIN], the MIC50 worked out at 2 µg/mL and the MIC90 is ≥ 64 µg/mL.

Regarding `C[C@@H](O)[C@H]1C(=O)N2C(C(=O)O)=C(S[C@@H]3CN[C@H](C(=O)N(C)C)C3)[C@H](C)[C@H]12` [MEROPENEM], the MIC50 turned out to be 0.063 µg/mL (≈ 0.164 µM) and the MIC90 came out at 0.063 µg/mL (≈ 0.164 µM).

For `CC1(C)S[C@@H]2[C@H](NC(=O)Cc3ccccc3)C(=O)N2[C@H]1C(=O)O` [PENICILLIN G], the MIC50 is 0.063 µg/mL (≈ 0.188 µM) and the MIC90 came to 0.063 µg/mL (≈ 0.188 µM).
